Measurements published in patent publication US9416128B2, “Fused heterocyclic compounds as ion channel modulators” (Gilead Sciences, Inc., priority 2013, dated 2016).

Legend:
hNaV1.1 (SCN1A) = hNaV1.1 (SCN1A) (Homo sapiens, UniProt P35498); experiment: Use-dependent inhibition of the CNS NaV1.1 sodium channel; type: cell-based; settings: % inhibition; for inhibition at 1 µM / inhibition at 10 µM: 25 Hz; for inhibition at 1 µM: read-out: Nav1.1 UDB 25 Hz 1 uM; for inhibition at 10 µM: read-out: Nav1.1 UDB 25 Hz 10 uM
Protocol: HEK-293 cells stably expressing wild-type (WT) hNaV1.1 (SCN1A, NCBI# AB09354) were obtained from Millipore (Cat. # CYL3009) were used to record INa. Cells are maintained with standard tissue culture procedures and stable channel expression is maintained with 400 ug/mL G418 in the culture medium. Unless otherwise noted, all reagents are purchased from Sigma-Aldrich (St Louis, Mo., U.S.A.).
Assays measuring Use-Dependent Block (UDB) of NaV1.2 are performed on an automated electrophysiology platform, QPatch 16X or QPatch HT (Sophion Bioscience, Copenhagen, Denmark), using the whole cell patch clamp technique to measure currents through the cell membrane. Series resistance compensation is set to 100% and series resistance and whole-cell compensation are performed automatically. Currents stored in the Sophion Bioscience Oracle database (Sophion Bioscience, Copenhagen, Denmark). Analysis is performed using QPatch Assay software and data are compiled in Excel 2010 (Microsoft, Seattle, Wash., U.S.A.).
The internal (pipette) solution consists of (in mM) 105 CsF, 10 NaF, 20 CsCl, 2 EGTA, 10 HEPES, 10 Dextrose with a pH of 7.35 and osmolarity of 300 mOsmol/kg. The external (bath) solution contains in (mM): 145 NaCl, 4 KCl, 1.8 CaCl2, 1 MgCl2, 10 dextrose, 10 HEPES, with a pH of 7.35 and osmolarity of 310 mOsmol/kg. Experiments are carried out at 23-25° C.
(§1) Compound stocks are routinely made by the Gilead Sample Bank in vials to 10 mM in dimethyl sulfoxide (DMSO). In some cases, when compounds are not soluble in DMSO, they are made in 100% ethanol. Stocks are sonicated as necessary. […]
Cells are allowed to stabilize for 10 min after establishment of the whole-cell configuration before current is measured. The test compound is applied 2 times at 60 second intervals. After the second compound addition, a 200 second wait period was imposed to allow for equilibration.
Leak currents are subtracted by using an online P/4 procedure and all currents are low-pass Bessel filtered at 5 kHz and digitized at […].
Use-dependent block of NaV1.2 peak current is measured during pulse number 20 of a voltage pulse train (0 mV, 20 ms, 20 pulses, 25 Hz) from a holding potential of −120 mV. Currents are normalized to the peak current recorded in response to the first pulse in each frequency train. The voltage protocol for UDB was performed in the absence and presence of compound and percentage inhibition was calculated with respect to the compound free condition. Results are presented as mean percentage inhibition and data analysis is performed using QPatch Assay Software 4.0, and Excel 2002 (Microsoft, Seattle, Wash., U.S.A.).

hNaV1.2 (SCN2A) = biological target: T1, hNaV1.2 (SCN2A) (Homo sapiens, UniProt Q99250); experiment: Use-dependent inhibition of the CNS NaV1.2 sodium channel; type: cell-based; settings: % inhibition; for inhibition at 1 µM / inhibition at 10 µM: HEK-293, 25 Hz; for inhibition at 1 µM: read-out: Nav1.2 UDB 25 Hz 1 uM; for inhibition at 10 µM: read-out: Nav1.2 UDB 25 Hz 10 uM
T1 construct: expressed in transfected cells
Protocol: HEK-293 cells stably expressing wild-type (WT) hNaV1.2 (SCN2A NCBI # NM_021007.2, SCN1B NCBI # NM_001037.4, SCN2B NCBI # NM_004588.2) were used to record INa. Cells are maintained with standard tissue culture procedures and stable channel expression is maintained with 800 ug/mL G418 and 3 ug/mL Puromycin in the culture medium. Unless otherwise noted, all reagents are purchased from Sigma-Aldrich (St Louis, Mo., U.S.A.).
Assays measuring Use-Dependent Block (UDB) of NaV1.2 are performed on an automated electrophysiology platform, QPatch 16X or QPatch HT (Sophion Bioscience, Copenhagen, Denmark), using the whole cell patch clamp technique to measure currents through the cell membrane. Series resistance compensation is set to 100% and series resistance and whole-cell compensation are performed automatically. Currents stored in the Sophion Bioscience Oracle database (Sophion Bioscience, Copenhagen, Denmark). Analysis is performed using QPatch Assay software and data are compiled in Excel 2010 (Microsoft, Seattle, Wash., U.S.A.). The internal (pipette) solution consists of (in mM) 105 CsF, 10 NaF, 20 CsCl, 2 EGTA, 10 HEPES, 10 Dextrose with a pH of 7.35 and osmolarity of 300 mOsmol/kg. The external (bath) solution contains in (mM): 145 NaCl, 4 KCl, 1.8 CaCl2, 1 MgCl2, 10 dextrose, 10 HEPES, with a pH of 7.35 and osmolarity of 310 mOsmol/kg. Experiments are carried out at 23-25° C.
as §1
Cells are allowed to stabilize for 10 min after establishment of the whole-cell configuration before current is measured. The test compound is applied 2 times at 60 second intervals. After the second compound addition, a 200 second wait period was imposed to allow for equilibration. Leak currents are subtracted by using an online P/4 procedure and all currents are low-pass Bessel filtered at 5 kHz and digitized at […].
Results are presented as mean percentage inhibition.
Use-dependent block of NaV1.2 peak current is measured during pulse number 20 of a voltage pulse train (0 mV, 20 ms, 20 pulses, 25 Hz) from a holding potential of −120 mV.
Currents are normalized to the peak current recorded in response to the first pulse in each frequency train. The voltage protocol for UDB was performed in the absence and presence of compound and percentage inhibition was calculated with respect to the compound free condition.
Data analysis is performed using QPatch Assay Software 4.0, and Excel 2002 (Microsoft, Seattle, Wash., U.S.A.).

T1 sequence (Q99250 whole entry): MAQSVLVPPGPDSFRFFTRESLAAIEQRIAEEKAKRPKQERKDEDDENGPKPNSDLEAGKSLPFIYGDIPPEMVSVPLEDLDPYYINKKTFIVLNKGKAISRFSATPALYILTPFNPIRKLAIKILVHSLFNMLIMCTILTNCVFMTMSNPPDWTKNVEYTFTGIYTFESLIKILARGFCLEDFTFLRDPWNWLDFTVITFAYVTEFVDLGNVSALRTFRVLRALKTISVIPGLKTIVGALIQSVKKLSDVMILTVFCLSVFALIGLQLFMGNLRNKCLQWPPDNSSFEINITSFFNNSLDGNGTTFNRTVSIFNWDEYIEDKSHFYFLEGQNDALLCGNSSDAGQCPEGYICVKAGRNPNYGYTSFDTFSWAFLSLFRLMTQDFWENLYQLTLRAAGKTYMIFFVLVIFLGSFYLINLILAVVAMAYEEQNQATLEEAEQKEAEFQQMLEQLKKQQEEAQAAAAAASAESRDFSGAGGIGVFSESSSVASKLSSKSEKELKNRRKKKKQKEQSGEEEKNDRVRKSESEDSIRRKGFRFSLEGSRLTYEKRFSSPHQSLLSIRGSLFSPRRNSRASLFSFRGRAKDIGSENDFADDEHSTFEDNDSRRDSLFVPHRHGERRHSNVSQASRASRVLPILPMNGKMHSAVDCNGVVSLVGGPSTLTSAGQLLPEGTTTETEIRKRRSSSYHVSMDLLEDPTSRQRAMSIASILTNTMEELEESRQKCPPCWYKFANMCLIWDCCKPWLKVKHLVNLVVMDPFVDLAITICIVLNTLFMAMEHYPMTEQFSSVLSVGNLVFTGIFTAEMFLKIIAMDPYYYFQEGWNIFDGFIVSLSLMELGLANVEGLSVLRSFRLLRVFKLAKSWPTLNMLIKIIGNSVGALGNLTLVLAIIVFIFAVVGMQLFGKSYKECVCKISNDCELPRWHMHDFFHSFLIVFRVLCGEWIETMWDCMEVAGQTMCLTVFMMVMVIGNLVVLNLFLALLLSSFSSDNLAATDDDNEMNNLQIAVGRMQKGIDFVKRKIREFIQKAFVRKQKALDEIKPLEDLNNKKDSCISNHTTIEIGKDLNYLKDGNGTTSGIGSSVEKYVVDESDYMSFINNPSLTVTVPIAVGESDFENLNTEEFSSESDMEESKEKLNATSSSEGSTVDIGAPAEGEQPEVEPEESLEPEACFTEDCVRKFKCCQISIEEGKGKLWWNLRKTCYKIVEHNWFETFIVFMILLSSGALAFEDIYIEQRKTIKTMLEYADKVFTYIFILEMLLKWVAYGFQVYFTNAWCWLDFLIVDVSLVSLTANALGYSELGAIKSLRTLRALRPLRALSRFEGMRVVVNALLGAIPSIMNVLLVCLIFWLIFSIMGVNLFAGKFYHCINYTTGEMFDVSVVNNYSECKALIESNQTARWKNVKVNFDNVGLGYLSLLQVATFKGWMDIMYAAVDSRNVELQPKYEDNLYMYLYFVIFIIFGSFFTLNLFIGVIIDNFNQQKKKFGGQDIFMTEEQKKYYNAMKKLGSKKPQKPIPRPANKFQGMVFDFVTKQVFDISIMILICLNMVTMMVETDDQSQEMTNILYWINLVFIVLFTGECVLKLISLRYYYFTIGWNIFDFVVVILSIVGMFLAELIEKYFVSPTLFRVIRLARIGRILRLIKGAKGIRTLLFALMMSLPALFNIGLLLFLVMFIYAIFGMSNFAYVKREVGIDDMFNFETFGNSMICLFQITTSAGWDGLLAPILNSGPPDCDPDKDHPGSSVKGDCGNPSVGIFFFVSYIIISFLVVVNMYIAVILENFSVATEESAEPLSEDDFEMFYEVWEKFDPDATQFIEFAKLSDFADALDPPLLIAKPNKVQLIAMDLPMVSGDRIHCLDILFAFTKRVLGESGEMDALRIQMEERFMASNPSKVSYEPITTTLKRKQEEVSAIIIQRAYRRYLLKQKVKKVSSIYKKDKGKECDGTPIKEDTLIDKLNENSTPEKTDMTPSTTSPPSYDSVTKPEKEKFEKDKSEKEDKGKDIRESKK
T1 sequence (Q07699 19-218 partner): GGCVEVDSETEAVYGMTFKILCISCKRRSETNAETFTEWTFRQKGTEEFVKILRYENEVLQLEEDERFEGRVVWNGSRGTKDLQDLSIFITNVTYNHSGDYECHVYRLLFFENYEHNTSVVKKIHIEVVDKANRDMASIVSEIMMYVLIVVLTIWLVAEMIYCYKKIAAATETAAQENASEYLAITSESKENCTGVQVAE
T1 sequence (O60939 30-215 partner): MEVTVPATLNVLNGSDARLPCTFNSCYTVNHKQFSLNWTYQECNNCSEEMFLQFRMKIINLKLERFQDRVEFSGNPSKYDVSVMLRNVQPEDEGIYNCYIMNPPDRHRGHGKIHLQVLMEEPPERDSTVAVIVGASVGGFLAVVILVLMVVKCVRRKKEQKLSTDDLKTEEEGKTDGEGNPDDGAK

## COc1cc(OC(F)(F)F)ccc1-c1ccc2c(c1)CN(Cc1ncccn1)C(=O)O2 [Example 1, 6-(2-methoxy-4-(trifluoromethoxy)phenyl)-3-(pyrimidin-2-ylmethyl)-3,4-dihydro-2H-benzo[e][1,3]oxazin-2-one]
hNaV1.1 (SCN1A); use-dependent block at 1 uM
  Nav1.1 UDB 25 Hz 1 uM: <5%
hNaV1.1 (SCN1A); use-dependent block at 10 uM
  Nav1.1 UDB 25 Hz 10 uM: 34.4%
hNaV1.2 (SCN2A); use-dependent block at 1 uM
  Nav1.2 UDB 25 Hz 1 uM: 7.9%
hNaV1.2 (SCN2A); use-dependent block at 10 uM
  Nav1.2 UDB 25 Hz 10 uM: 37.0%

## O=C1Oc2ccc(-c3ccc(C(F)(F)F)cc3)cc2CN1Cc1ccncc1 [Example 2, 3-(pyridin-4-ylmethyl)-6-(4-(trifluoromethyl)phenyl)-3,4-dihydro-2H-benzo[e][1,3]oxazin-2-one]
hNaV1.1 (SCN1A); use-dependent block at 1 uM
  inhibition at 1 µM: 9.7%
hNaV1.1 (SCN1A); use-dependent block at 10 uM
  inhibition at 10 µM: 22.6%
hNaV1.2 (SCN2A); use-dependent block at 1 uM
  inhibition at 1 µM: 19.8%
hNaV1.2 (SCN2A); use-dependent block at 10 uM
  inhibition at 10 µM: 28.1%

## Cc1cc(-c2ccc3c(c2)CN(Cc2ncccn2)C(=O)O3)ccc1OC(F)(F)F [Example 5, 6-(3-methyl-4-(trifluoromethoxy)phenyl)-3-(pyrimidin-2-ylmethyl)-3,4-dihydro-2H-benzo[e][1,3]oxazin-2-one]
hNaV1.1 (SCN1A); use-dependent block at 1 uM
  inhibition at 1 µM: < 5%
hNaV1.1 (SCN1A); use-dependent block at 10 uM
  inhibition at 10 µM: 15.3%
hNaV1.2 (SCN2A); use-dependent block at 1 uM
  inhibition at 1 µM: < 5%
hNaV1.2 (SCN2A); use-dependent block at 10 uM
  inhibition at 10 µM: 24.9%

## O=C1Oc2ccc(-c3ccc(Cl)c(F)c3)cc2CN1Cc1ncccn1 [Example 6, 6-(4-chloro-3-fluorophenyl)-3-(pyrimidin-2-ylmethyl)-3,4-dihydro-2H-benzo[e][1,3]oxazin-2-one]
hNaV1.1 (SCN1A); use-dependent block at 1 uM
  inhibition at 1 µM: 26.7%
hNaV1.1 (SCN1A); use-dependent block at 10 uM
  inhibition at 10 µM: 65.2%

## O=C1Oc2ccc(-c3ccc(OC(F)(F)F)cc3F)cc2CN1Cc1ncccn1 [Example 7, 6-(2-fluoro-4-(trifluoromethoxy)phenyl)-3-(pyrimidin-2-ylmethyl)-3,4-dihydro-2H-benzo[e][1,3]oxazin-2-one]
hNaV1.1 (SCN1A); use-dependent block at 1 uM
  inhibition at 1 µM: 5.7%
hNaV1.1 (SCN1A); use-dependent block at 10 uM
  inhibition at 10 µM: 42.4%
hNaV1.2 (SCN2A); use-dependent block at 1 uM
  inhibition at 1 µM: 18%
hNaV1.2 (SCN2A); use-dependent block at 10 uM
  inhibition at 10 µM: 56.3%

## Cc1cc(OC(F)(F)F)ccc1-c1ccc2c(c1)CN(Cc1ncccn1)C(=O)O2 [Example 8, 6-(2-methyl-4-(trifluoromethoxy)phenyl)-3-(pyrimidin-2-ylmethyl)-3,4-dihydro-2H-benzo[e][1,3]oxazin-2-one]
hNaV1.1 (SCN1A); use-dependent block at 1 uM
  inhibition at 1 µM: < 5%
hNaV1.1 (SCN1A); use-dependent block at 10 uM
  inhibition at 10 µM: 11.6%
hNaV1.2 (SCN2A); use-dependent block at 1 uM
  inhibition at 1 µM: < 5%
hNaV1.2 (SCN2A); use-dependent block at 10 uM
  inhibition at 10 µM: 11%

## COc1cc(OC(F)(F)F)ccc1-c1ccc2c(c1)CN(Cc1ncccn1)C(=O)O2 [Example 9, 6-(2-methoxy-4-(trifluoromethoxy)phenyl)-3-(pyrimidin-2-ylmethyl)-3,4-dihydro-2H-benzo[e][1,3]oxazin-2-one]
hNaV1.1 (SCN1A); use-dependent block at 1 uM
  inhibition at 1 µM: < 5%
hNaV1.1 (SCN1A); use-dependent block at 10 uM
  inhibition at 10 µM: 34.4%
hNaV1.2 (SCN2A); use-dependent block at 1 uM
  inhibition at 1 µM: 7.9%
hNaV1.2 (SCN2A); use-dependent block at 10 uM
  inhibition at 10 µM: 37%

## O=C1Oc2ccc(-c3ccc(OC(F)(F)F)c(F)c3)cc2CN1Cc1ncccn1 [Example 10, 6-(3-fluoro-4-(trifluoromethoxy)phenyl)-3-(pyrimidin-2-ylmethyl)-3,4-dihydro-2H-benzo[e][1,3]oxazin-2-one]
hNaV1.1 (SCN1A); use-dependent block at 1 uM
  inhibition at 1 µM: 35%
hNaV1.1 (SCN1A); use-dependent block at 10 uM
  inhibition at 10 µM: 75.9%
hNaV1.2 (SCN2A); use-dependent block at 1 uM
  inhibition at 1 µM: 30.2%
hNaV1.2 (SCN2A); use-dependent block at 10 uM
  inhibition at 10 µM: 75%

## CC1c2cc(-c3ccc(Cl)c(F)c3)ccc2OC(=O)N1Cc1ncccn1 (stereo not drawn) [Example 11, 6-(4-chloro-3-fluorophenyl)-4-methyl-3-(pyrimidin-2-ylmethyl)-3,4-dihydro-2H-benzo[e][1,3]oxazin-2-one]
hNaV1.1 (SCN1A); use-dependent block at 1 uM
  inhibition at 1 µM: 21%
hNaV1.1 (SCN1A); use-dependent block at 10 uM
  inhibition at 10 µM: 81.1%
hNaV1.2 (SCN2A); use-dependent block at 1 uM
  inhibition at 1 µM: 29.9%
hNaV1.2 (SCN2A); use-dependent block at 10 uM
  inhibition at 10 µM: 77.2%

## Cc1cnc(CN2Cc3cc(-c4ccc(OC(F)(F)F)cc4)ccc3OC2=O)nc1 [Example 12, 3-((5-methylpyrimidin-2-yl)methyl)-6-(4-(trifluoromethoxy)phenyl)-3,4-dihydro-2H-benzo[e][1,3]oxazin-2-one]
hNaV1.1 (SCN1A); use-dependent block at 1 uM
  inhibition at 1 µM: 7.5%
hNaV1.1 (SCN1A); use-dependent block at 10 uM
  inhibition at 10 µM: 73.9%
hNaV1.2 (SCN2A); use-dependent block at 1 uM
  inhibition at 1 µM: 15.4%
hNaV1.2 (SCN2A); use-dependent block at 10 uM
  inhibition at 10 µM: 68.8%

## Cc1cnc(CN2Cc3cc(-c4ccc(C(F)(F)F)cc4)ccc3OC2=O)nc1 [Example 13, 3-((5-methylpyrimidin-2-yl)methyl)-6-(4-(trifluoromethyl)phenyl)-3,4-dihydro-2H-benzo[e][1,3]oxazin-2-one]
hNaV1.1 (SCN1A); use-dependent block at 1 uM
  inhibition at 1 µM: 37.5%
hNaV1.1 (SCN1A); use-dependent block at 10 uM
  inhibition at 10 µM: 88.8%
hNaV1.2 (SCN2A); use-dependent block at 1 uM
  inhibition at 1 µM: 21.4%
hNaV1.2 (SCN2A); use-dependent block at 10 uM
  inhibition at 10 µM: 63.4%

## Cc1cnc(CN2Cc3cc(-c4ccc(OC(F)(F)F)cc4F)ccc3OC2=O)nc1 [Example 14, 6-(2-fluoro-4-(trifluoromethoxy)phenyl)-3-((5-methylpyrimidin-2-yl)methyl)-3,4-dihydro-2H-benzo[e][1,3]oxazin-2-one]
hNaV1.1 (SCN1A); use-dependent block at 1 uM
  inhibition at 1 µM: < 5%
hNaV1.1 (SCN1A); use-dependent block at 10 uM
  inhibition at 10 µM: 43.8%
hNaV1.2 (SCN2A); use-dependent block at 1 uM
  inhibition at 1 µM: < 5%
hNaV1.2 (SCN2A); use-dependent block at 10 uM
  inhibition at 10 µM: 59.9%

## O=C1Oc2ccc(-c3ccc(OC(F)(F)F)cc3)cc2CN1CCc1ncccn1 [Example 16, 3-(2-(pyrimidin-2-yl)ethyl)-6-(4-(trifluoromethoxy)phenyl)-3,4-dihydro-2H-benzo[e][1,3]oxazin-2-one]
hNaV1.1 (SCN1A); use-dependent block at 1 uM
  inhibition at 1 µM: 17.3%
hNaV1.1 (SCN1A); use-dependent block at 10 uM
  inhibition at 10 µM: 52.2%
hNaV1.2 (SCN2A); use-dependent block at 1 uM
  inhibition at 1 µM: 23.4%
hNaV1.2 (SCN2A); use-dependent block at 10 uM
  inhibition at 10 µM: 52.9%

## CC1c2cc(-c3ccc(OC(F)(F)F)cc3)ccc2OC(=O)N1Cc1ncccn1 (stereo not drawn) [Example 48, 4-methyl-3-(pyrimidin-2-ylmethyl)-6-(4-(trifluoromethoxy)phenyl)-3,4-dihydro-2H-benzo[e][1,3]oxazin-2-one]
hNaV1.1 (SCN1A); use-dependent block at 1 uM
  inhibition at 1 µM: 32.5%
hNaV1.1 (SCN1A); use-dependent block at 10 uM
  inhibition at 10 µM: 73.3%

## CC1c2cc(-c3cccc(OC(F)(F)F)c3)ccc2OC(=O)N1Cc1ncccn1 (stereo not drawn) [Example 50, 4-methyl-3-(pyrimidin-2-ylmethyl)-6-(3-(trifluoromethoxy)phenyl)-3,4-dihydro-2H-benzo[e][1,3]oxazin-2-one]
hNaV1.1 (SCN1A); use-dependent block at 1 uM
  inhibition at 1 µM: 10.1%
hNaV1.1 (SCN1A); use-dependent block at 10 uM
  inhibition at 10 µM: 71.2%
